{"source": "a melting point compilation (Tetko et al.; mined from patent text by program, amines drawn as free bases though some values may be those of a salt)", "data": [{"units": {"melting point": "°C"}, "values": [{"smiles": "Cc1cc(C2C=CCC2)c(S(C)(=O)=O)cc1C(=O)N=C(N)N", "note": "(stereo not drawn)", "melting point": "212 to 214"}, {"smiles": "OCCCNc1cc(-c2ccnc(Nc3cccc(C(F)(F)F)c3)n2)ccn1", "melting point": "158 to 163"}, {"smiles": "CCN(c1nc(C)cc(C)n1)c1ccc(CC=NOC)cc1SC", "melting point": "106 to 108"}, {"smiles": "COc1cc2c(-c3cc4c(Cl)ccnc4[nH]3)cn(CCN3CCC(CCO)CC3)c2cc1OC", "melting point": 200}, {"smiles": "Cc1cccc(-c2nc3ccc(OCCN(C)C)cc3n2Cc2ccccc2C(F)(F)F)c1", "melting point": 93}, {"smiles": "NC(=O)c1cnn2c1NCCC2c1cccc(C(F)(F)F)c1", "note": "(stereo not drawn)", "melting point": "152 to 154"}, {"smiles": "O=C(O)C(=O)CC(=O)c1cccn1Cc1ccccc1-c1ccccc1", "melting point": "150 to 152"}, {"smiles": "Cc1c(Sc2cc(Cl)c(Cl)cc2Cl)cc(C(C)(C)C)c(O)c1C(=O)Nc1ccc([N+](=O)[O-])cc1C(F)(F)F", "melting point": "179 to 180"}, {"smiles": "COC(=O)CCCc1cc2nc(Cl)ccc2n1S(=O)(=O)c1ccc(C(F)(F)F)cc1", "melting point": 99}, {"smiles": "CS(=O)(=O)c1ccc(-c2cc(=O)n(CC3CCCC3)nc2-c2ccc(F)cc2)cc1", "melting point": "76 to 77"}, {"smiles": "Nc1nc(NC2Cc3ccccc3N(C(=O)c3ccccc3)C2)c2cn[nH]c2n1", "note": "(stereo not drawn)", "melting point": "155 to 164"}, {"smiles": "NC(=O)CCNc1ccc(OC(F)(F)F)cc1", "melting point": 76}, {"smiles": "COc1ccc(-c2[nH]nc3c2C(=O)c2c(NC(=O)NN4CCOCC4)cccc2-3)cc1", "melting point": "290 to 291"}, {"smiles": "CCOC(=O)c1c(CCc2ccc(OC)cc2)oc2ccc(Br)cc12", "melting point": "73 to 75"}, {"smiles": "N#Cc1cc(C(=O)Nc2ccc(F)cn2)nc(C(F)(F)F)c1", "melting point": 186}, {"smiles": "O=C(O)c1ccc(N2C(=O)CCC2C(=O)O)c([N+](=O)[O-])c1", "note": "(stereo not drawn)", "melting point": "235 to 237"}, {"smiles": "O=C1COc2ccc(NC(=O)C(=O)N3CCC(Cc4ccc(F)cc4)CC3)cc2N1", "melting point": "197 to 200"}, {"smiles": "COC(=O)C(Oc1ccc(Cl)cc1)c1ccc(S(=O)c2ccc(Cl)cc2)cc1", "note": "(stereo not drawn)", "melting point": "134 to 144"}, {"smiles": "OCCOc1cccc2ocnc12", "melting point": "47 to 49"}, {"smiles": "CN(C)C(=O)Cc1c(-c2ccccc2)nn2cccnc12", "melting point": "156 to 158"}, {"smiles": "O=C(Cc1c(-c2ccccc2)c2cc3c(cc2oc1=O)C=CC3)Nc1ccc(F)cc1C(F)(F)F", "melting point": "217 to 218"}, {"smiles": "Oc1ccc(-c2nc3cc(O)ccc3o2)cc1", "melting point": "264 to 267"}, {"smiles": "CNC(C)CN1CCc2c(c(=O)oc3cc(C)c(NC(C)=O)cc23)C1", "note": "(stereo not drawn)", "melting point": "187 to 188"}, {"smiles": "COC(=O)Cc1ccc(OCc2ccc3ccccc3n2)c(OC)c1", "melting point": 69}, {"smiles": "CCCOCc1nc(C(C)(C)O)c(C(=O)O)n1Cc1ccc(-c2ccccc2C(=O)O)cc1", "melting point": "109 to 111"}, {"smiles": "Cc1cc(O)c(S(=O)Cc2ccc(Cl)cc2)c(=O)o1", "note": "(stereo not drawn)", "melting point": "150 to 151"}, {"smiles": "O=C(NCCO)c1cncc(-c2cccc3cc(Cc4cc(F)cc(Cl)c4)sc23)c1", "melting point": "126 to 127"}, {"smiles": "CCOC(=O)c1cc2c(OC)ccnc2[nH]1", "melting point": "195 to 197"}, {"smiles": "COc1ccc(-c2cccc(C(=O)O)c2)c2cc(Cc3cccc(C(F)(F)F)c3)oc12", "melting point": "118 to 119"}, {"smiles": "CCS(=O)c1ccc(-c2coc3ccc(-c4nnc(C)o4)nc23)cc1", "note": "(stereo not drawn)", "melting point": "207 to 208"}, {"smiles": "CC(O)C(CCCc1ccccc1)n1ncc2c(=O)[nH]c(Cc3ccc(Br)cc3)nc21", "note": "(stereo not drawn)", "melting point": 117}, {"smiles": "CCOC(=O)c1cnn(-c2ccc(F)cc2)c1C", "melting point": "48 to 49"}, {"smiles": "COc1cc(N)c(Cl)cc1C(=O)NCC1CCN(CCCCCNC(=O)c2nn(C)c3ccccc23)CC1", "melting point": "74 to 77"}, {"smiles": "COC(=O)c1ccc(SC)c(OC(C)C)c1", "melting point": "41 to 43"}, {"smiles": "O=C(c1cc2cc(OCCNC[C@H](O)COc3ccccc3Cl)ccc2o1)N1CCCC1", "melting point": "89 to 90"}, {"smiles": "COC(=O)c1cccc2c1c(S(=O)(=O)NC(C)(C)C)nn2C", "melting point": "189 to 190"}, {"smiles": "CC(C)(C)NC(=O)C1CCC2C3CNC4=CC(=O)CCC4(C)C3CCC12C", "note": "(stereo not drawn)", "melting point": "186 to 189"}, {"smiles": "Cc1cc(C)c(C(C)(C)O)c(C)c1", "melting point": "106 to 107"}, {"smiles": "O=[N+]([O-])c1ccc(NC(CO)(CO)CO)cc1", "melting point": 165}, {"smiles": "CN1CCN(Cc2nnc(S)n2Cc2cc(F)cc(F)c2)CC1", "melting point": "200 to 201"}, {"smiles": "O=S(=O)(O)c1ccc(Nc2ncnc3cc(Cl)ccc23)cc1", "melting point": "> 300"}, {"smiles": "CN1CCN(c2ccc(-c3cnn4c(N)c(-c5ccccc5Cl)cnc34)cc2)CC1", "melting point": "197 to 200"}, {"smiles": "Clc1ccc(-c2c(Cc3nnn[nH]3)cnn2-c2ccccc2)cc1", "melting point": "230 to 232"}, {"smiles": "O=C(O)c1cccc(C(=O)c2ccc(F)cc2)c1", "melting point": 180}, {"smiles": "Cc1c(NC(=O)CC(C)(C)C)cc2c(c1C)OC(C)(C)C2(O)Cc1ccccc1", "note": "(stereo not drawn)", "melting point": "212 to 213"}, {"smiles": "CN1CCN(CC(=O)N2c3ccccc3N(C)C(=O)c3cncnc32)CC1", "melting point": "183 to 185"}, {"smiles": "CCc1c(-c2ccc(OCc3ccccc3)cc2)c2c(C(=O)O)c(C(=O)O)c3c(OCc4ccccc4)ccc1n32", "melting point": "151 to 161"}, {"smiles": "CN1Cc2c(C#N)ncn2-c2cccc(F)c2C1=O", "melting point": "> 250"}, {"smiles": "COc1cc(CN2C(=O)CCC2=O)cc(OC)c1-c1ccc(C[C@H](NC(=O)c2c(Cl)cccc2Cl)C(=O)O)cc1", "melting point": 137}, {"smiles": "CS(=O)(=O)c1c(C(N)=NO)nn(-c2c(Cl)cc(C(F)(F)F)cc2Cl)c1N", "melting point": "132 to 134"}, {"smiles": "CCOC(=O)C(C)=C(C)NC(=O)Nc1cc(C(=O)OC(C)C)c(Cl)cc1F", "melting point": "145 to 147"}, {"smiles": "CCOC(=O)c1ccc2[nH]c3c(c2c1)CC(N(C)C)CC3", "note": "(stereo not drawn)", "melting point": "188 to 190"}, {"smiles": "CC1(C)OC(c2cccs2)CN1C(=O)C(Cl)Cl", "note": "(stereo not drawn)", "melting point": "104 to 105"}, {"smiles": "CC(=O)c1cc(-c2c(C)c(NC(=O)CC(C)(C)C)c(C)c3c2OCC3c2ccc(C(C)C)cc2)cs1", "note": "(stereo not drawn)", "melting point": "133 to 134"}, {"smiles": "COC(=O)C(C)(C)COc1ccc(CNC(=O)C2Cc3ccccc3N2S(=O)(=O)c2ccc(-c3ccccc3C(F)(F)F)cc2)cc1", "note": "(stereo not drawn)", "melting point": "68 to 75"}, {"smiles": "CC(C)C1CCC(C)(OC(=O)OC2(C)CCC(C(C)C)CC2)CC1", "note": "(stereo not drawn)", "melting point": "101 to 102"}, {"smiles": "CC(C)Sc1c(-c2ccc(S(C)(=O)=O)cc2)cnn(CC(F)(F)F)c1=O", "melting point": "165 to 167"}, {"smiles": "CCOC(=O)c1ccc2c(c1)CCCC2Cn1ccnc1S", "note": "(stereo not drawn)", "melting point": "155 to 156"}, {"smiles": "O=C1CC(=O)N(c2ccc(Cl)cc2)N1", "melting point": "189 to 193"}, {"smiles": "Cc1ccc(Cn2ccc(CN3CCC(c4ccccc4)(c4ccccc4)CC3)n2)cc1C", "melting point": "139 to 140"}, {"smiles": "CCN(CC)C(=O)n1ccc(S(=O)(=O)c2cccc(F)c2F)n1", "melting point": "78 to 81"}, {"smiles": "N#Cc1ccc2ccc3ccccc3c(=O)c2c1", "melting point": "176 to 177"}, {"smiles": "CCc1cc(COc2nn(Cc3ccccc3)cc2C(=O)O)ccc1OCc1nc(-c2ccco2)oc1C", "melting point": "173 to 174"}, {"smiles": "Cc1cn(-c2nc(C3=Nc4ccc(-c5ccc(F)cc5)cc4NC(=O)C3)cs2)cn1", "melting point": 229}, {"smiles": "CC(C)(C)OC[C@@H]1NCCN(CC(=O)O)C1=O", "melting point": "178 to 180"}, {"smiles": "O=S(=O)(c1ccc(Cl)cc1)N1CCCC1c1ccc(C(F)(F)F)cc1", "note": "(racemic)", "melting point": 107}, {"smiles": "Cc1cccc(C2C(C#N)=C(C(C)C)Nc3n[nH]cc32)c1[N+](=O)[O-]", "note": "(stereo not drawn)", "melting point": 261}, {"smiles": "C[N+]([O-])=C(Cn1ccnc1)c1ccc2ccccc2c1", "melting point": "112 to 114"}]}]}
